Numbers after ± are expanded uncertainties.
Tests used:
[1] = xn = mol fraction of the nth substance listed; conditions: 100 kPa, Liquid; for viscosity: Falling or rolling sphere viscometry; for mass density: Vibrating tube method
[2] = refractive index (Na D-line) (dimensionless); conditions: 293.15 K; 101.33 kPa; Liquid; Standard Abbe refractometry
[3] = for viscosity / mass density: 100 kPa, Liquid; for viscosity: Falling or rolling sphere viscometry; for mass density: Vibrating tube method

CC1CCCCC1 [methylcyclohexane] + C1CCC(C2CCCCC2)CC1
[1], x2 = 0
Conditions	mass density [kg/m3]	viscosity [mPa·s]
293.15 K	769.58 ± 0.15	0.733 ± 0.011
298.15 K	765.23 ± 0.15	0.687 ± 0.011
303.15 K	760.89 ± 0.15	0.645 ± 0.011
308.15 K	756.53 ± 0.15	0.608 ± 0.011
313.15 K	752.17 ± 0.16	0.575 ± 0.011
318.15 K	747.78 ± 0.16	0.545 ± 0.011

CCCCC1CCCCC1 [butylcyclohexane]
Conditions	refractive index
[2]	1.4399 ± 0.004

[3]
Conditions	mass density [kg/m3]	viscosity [mPa·s]
293.15 K	799.6 ± 0.15	1.3 ± 0.014
298.15 K	795.85 ± 0.15	1.198 ± 0.013
303.15 K	792.1 ± 0.15	1.109 ± 0.013
308.15 K	788.33 ± 0.15	1.03 ± 0.013
313.15 K	784.56 ± 0.15	0.96 ± 0.012
318.15 K	780.78 ± 0.15	0.898 ± 0.012

CCCCC1CCCCC1 [butylcyclohexane] + C1CCC(C2CCCCC2)CC1
[1], x2 = 0
Conditions	mass density [kg/m3]	viscosity [mPa·s]
293.15 K	799.6 ± 0.15	1.3 ± 0.014
298.15 K	795.85 ± 0.15	1.198 ± 0.013
303.15 K	792.1 ± 0.15	1.109 ± 0.013
308.15 K	788.33 ± 0.15	1.03 ± 0.013
313.15 K	784.56 ± 0.15	0.96 ± 0.012
318.15 K	780.78 ± 0.15	0.898 ± 0.012

CC1CCCCC1 [methylcyclohexane]
Conditions	refractive index
[2]	1.4175 ± 0.004

[3]
Conditions	mass density [kg/m3]	viscosity [mPa·s]
293.15 K	769.58 ± 0.15	0.733 ± 0.011
298.15 K	765.23 ± 0.15	0.687 ± 0.011
303.15 K	760.89 ± 0.15	0.645 ± 0.011
308.15 K	756.53 ± 0.15	0.608 ± 0.011
313.15 K	752.17 ± 0.16	0.575 ± 0.011
318.15 K	747.78 ± 0.16	0.545 ± 0.011

CCC1CCCCC1 [ethylcyclohexane]
Conditions	refractive index
[2]	1.4275 ± 0.004

[3]
Conditions	mass density [kg/m3]	viscosity [mPa·s]
293.15 K	788.23 ± 0.15	0.851 ± 0.012
298.15 K	784.2 ± 0.15	0.796 ± 0.012
303.15 K	780.16 ± 0.15	0.748 ± 0.011
308.15 K	776.11 ± 0.15	0.704 ± 0.011
313.15 K	772.04 ± 0.15	0.665 ± 0.011
318.15 K	767.96 ± 0.15	0.629 ± 0.011

C1CCC(C2CCCCC2)CC1 [1,1'-bicyclohexyl]
Conditions	refractive index
[2]	1.4787 ± 0.004

[3]
Conditions	mass density [kg/m3]	viscosity [mPa·s]
293.15 K	886.39 ± 0.15	4.017 ± 0.033
298.15 K	882.79 ± 0.15	3.541 ± 0.029
303.15 K	879.19 ± 0.15	3.145 ± 0.026
308.15 K	875.6 ± 0.15	2.817 ± 0.023
313.15 K	872.01 ± 0.15	2.54 ± 0.022
318.15 K	868.43 ± 0.15	2.302 ± 0.02

Conditions	Normal melting temperature [°C]
[3], Crystal, DTA	2.60 ± 6

C1CCC(C2CCCCC2)CC1 [1,1'-bicyclohexyl] + CCC1CCCCC1
[1], x1 = 1
Conditions	mass density [kg/m3]	viscosity [mPa·s]
293.15 K	886.39 ± 0.15	4.017 ± 0.033
298.15 K	882.79 ± 0.15	3.541 ± 0.029
303.15 K	879.19 ± 0.15	3.145 ± 0.026
308.15 K	875.6 ± 0.15	2.817 ± 0.023
313.15 K	872.01 ± 0.15	2.54 ± 0.022
318.15 K	868.43 ± 0.15	2.302 ± 0.02

Source: the NIST ThermoML archive (doi:10.1021/je500275j)
